Laboratory results taken from patent US20200281918A1, “CALCIUM RELEASE-ACTIVATED CALCIUM CHANNEL MODULATORS FOR TREATING HEMATOLOGICAL AND SOLID CANCERS” (Rhizen Pharmaceuticals SA, priority 2017, published 2020).

Columns and labels:
[1] = system: panel of cancer cell lines; assay: Anti-proliferative effect (MTT assay); format: cell-based; conditions: majority of the cell lines tested, 48-72 hours, MTT (FIG. 3)
Description: (§1) A panel of cancer cell lines representing various different types of cancers were plated in 96-well plates and incubated with desired concentrations of Compound (A) for 48-72 hours. At the end of the incubation period, MTT ((3-(4,5-dimethylthiazol-2-yl)-2,5-diphenyltetrazolium bromide)) was added. The plates were placed on a shaker for 5 minutes to mix the formazan and the optical density at 560 nm was measured using a spectrophotometer. Data were plotted using Graphpad Prism for calculation of the GI50 concentrations.

[2] = system: normal lung cell line WI-38; assay: Anti-proliferative effect (MTT assay); format: cell-based; conditions: WI-38, MTT, 48-72 hours
Description: as §1

[3] = Body weight in NCI-H460 xenograft model; format: in vivo, female Balb/c nude mice; conditions: oral 30 mg/kg BID, 15 day period, Balb/c nude mice
Description: (§2) The anti-tumor effect of Compound (A) was determined as a single agent in a NCI-H460 human non-small cell lung cancer xenografts model using female Balb/c nude mice. 10^6 cells were injected into the flank region. A week after tumor cell injection, mice either received the vehicle, oral administration of Compound (A) at 30 mg/kg BID or intravenous administration of taxol at 10 mg/kg Q3D (every three days) across a 15 day period. At the end of the study period, animals were sacrificed and the tumors harvested.

phospho-mTOR = assay: Western blotting of markers in Jurkat cells; format: cell-based; conditions: 24 hours, 10, 100, 1000 nM (FIG. 4)
Description: (§3) Cell lines were plated in RPMI media at a pre-determined density in a 6-well plate. After overnight incubation, cells were treated with Compound (A) for 24 hours. Cell lysates were analyzed for the expression of markers by Western Blotting. Gapdh, mTOR and S6 were used as a loading control for NFkB, phospho-mTOR, and phospho-S6 respectively. Lanes: A: Blank; B: 10 nM; C: 100 nM; D: 1000 nM.

NFkB = assay: Western blotting of markers in Jurkat cells; format: cell-based; conditions: 24 hours, 10, 100, 1000 nM (FIG. 4)
Description: as §3

phospho-S6 = assay: Western blotting of markers in Jurkat cells; format: cell-based; conditions: 24 hours, 10, 100, 1000 nM (FIG. 4)
Description: as §3

A427 = assay: Apoptosis (activated caspase-3 antibody) panel; format: cell-based
Description: (§4) An antibody to activated caspase-3 was used to label cells from early to late stage apoptosis. The concentration of Compound (A) that caused a 2-fold induction in the caspase-3 signal was determined, indicating a significant apoptosis induction.

SH-4 = assay: Apoptosis (activated caspase-3 antibody) panel; format: cell-based
Description: as §4

ACHN = assay: Apoptosis (activated caspase-3 antibody) panel; format: cell-based
Description: as §4

NCI-H661 = assay: Apoptosis (activated caspase-3 antibody) panel; format: cell-based
Description: as §4

Calu6 = assay: Apoptosis (activated caspase-3 antibody) panel; format: cell-based
Description: as §4

MDA MB 468 = assay: Apoptosis (activated caspase-3 antibody) panel; format: cell-based
Description: as §4

MDA MB 231 = assay: Apoptosis (activated caspase-3 antibody) panel; format: cell-based
Description: as §4

ARH-77 = assay: Apoptosis (activated caspase-3 antibody) panel; format: cell-based
Description: as §4

DOHH-2 = assay: Apoptosis (activated caspase-3 antibody) panel; format: cell-based
Description: as §4

U266B1 = assay: Apoptosis (activated caspase-3 antibody) panel; format: cell-based
Description: as §4

AGS = assay: Apoptosis (activated caspase-3 antibody) panel; format: cell-based
Description: as §4

AsPC-1 = assay: Apoptosis (activated caspase-3 antibody) panel; format: cell-based
Description: as §4

RKOE6 = assay: Apoptosis (activated caspase-3 antibody) panel; format: cell-based
Description: as §4

PANC-1 = assay: Apoptosis (activated caspase-3 antibody) panel; format: cell-based
Description: as §4

Hs 578T = assay: Apoptosis (activated caspase-3 antibody) panel; format: cell-based
Description: as §4

A7 = assay: Apoptosis (activated caspase-3 antibody) panel; format: cell-based
Description: as §4

RKO-AS45-1 = assay: Apoptosis (activated caspase-3 antibody) panel; format: cell-based
Description: as §4

Wi38 = assay: Apoptosis (activated caspase-3 antibody) panel; format: cell-based
Description: as §4

HCT-116 = assay: Apoptosis (activated caspase-3 antibody) panel; format: cell-based
Description: as §4

T98G = assay: Apoptosis (activated caspase-3 antibody) panel; format: cell-based
Description: as §4

G-402 = assay: Apoptosis (activated caspase-3 antibody) panel; format: cell-based
Description: as §4

786-O = assay: Apoptosis (activated caspase-3 antibody) panel; format: cell-based
Description: as §4

DB = assay: Apoptosis (activated caspase-3 antibody) panel; format: cell-based
Description: as §4

RD = assay: Apoptosis (activated caspase-3 antibody) panel; format: cell-based
Description: as §4

C32 = assay: Apoptosis (activated caspase-3 antibody) panel; format: cell-based
Description: as §4

769-P = assay: Apoptosis (activated caspase-3 antibody) panel; format: cell-based
Description: as §4

PC-3 = assay: Apoptosis (activated caspase-3 antibody) panel; format: cell-based
Description: as §4

SKO-007 = assay: Apoptosis (activated caspase-3 antibody) panel; format: cell-based
Description: as §4

SK-BR-3 = assay: Apoptosis (activated caspase-3 antibody) panel; format: cell-based
Description: as §4

SW1088 = assay: Apoptosis (activated caspase-3 antibody) panel; format: cell-based
Description: as §4

A549 cells [4] = assay: Scratch-wound migration assay; format: cell-based; conditions: 10% FBS, 72 hours, 10-10,000 nM (FIG. 2)
Description: A scratch was made to a serum-starved monolayer of A549 cells followed by washing and incubation with a desired concentration of Compound (A) in media with 10% fetal bovine serum (FBS) for 72 hours. The distance between the two edges of the wound was measured and percent inhibition was calculated with respect to a control.

NCI-H1975 cells = assay: Induction of Caspase 3 (Millipore Caspase-3 kit, fluorimetric); format: cell-based; conditions: 48 hours, 10-10,000 nM (FIG. 1)
Description: (§5) NCH-H460, A549 and NCI-H1975 cells were incubated with desired concentrations of the test compound for 48 hours. An equal number of cells per well (0.3×10^6 cells) were used. The increase in apoptosis manifested by an elevation in caspase-3 levels was determined using a Caspase-3 kit from Millipore. Induction of Caspase 3 by Compound (A) was measured fluorimetrically.

NCH-H460 cells = assay: as above; format: cell-based; conditions: 48 hours, 10-10,000 nM (FIG. 1)
Description: as §5

A549 cells [5] = assay: as above; format: cell-based; conditions: 48 hours, 10-10,000 nM (FIG. 1)
Description: as §5

[6] = system: NCI-H460 human non-small cell lung tumor xenografts; assay: NCI-H460 human non-small cell lung cancer xenograft model; format: in vivo, female Balb/c nude mice
Description: as §2

[7] = concentration causing 2-fold induction in caspase-3 signal

In the case of `O=C(Cc1ccc2ncccc2c1)Nc1ccc(-n2nc(C3CC3)cc2C2CC2)cc1` [Compound (A), N-(4-(3,5-dicyclopropyl-1H-pyrazol-1-yl)phenyl)-2-(quinolin-6-yl)acetamide], the GI50 [1] is reported as 0.3 to 3 µM, the “growth of normal lung cell line WI-38” value [2] is reported as “did not affect growth” and the mice body weight [3] is reported as “did not affect the mice body weight”. For the same molecule, the “phospho-mTOR expression (Western blot)” value (phospho-mTOR) was “dose-dependent reduction”, the “NFkB expression (Western blot)” value (NFkB) was “dose-dependent reduction” and the “phospho-S6 expression (Western blot)” value (phospho-S6) was “dose-dependent reduction”. The “Apoptosis Emax” value (A427) was 16.1, the “G1/S cell cycle block” value (A427) was 3.52 µM and the “Apoptosis 2 Fold Induction” value (A427; [7]) was 2.77 µM. The “Apoptosis Emax” value (SH-4) was 72.67, the “G1/S cell cycle block” value (SH-4) was 16.6 µM and the “Apoptosis 2 Fold Induction” value (SH-4; [7]) was 15.59 µM. The “Apoptosis Emax” value (ACHN) was 2.86, the “G1/S cell cycle block” value (ACHN) was 10.3 µM and the “Apoptosis 2 Fold Induction” value (ACHN; [7]) was 11.23 µM. For the same molecule, the “Apoptosis Emax” value (NCI-H661) was 13.23, the “G1/S cell cycle block” value (NCI-H661) was 2.8 µM and the “Apoptosis 2 Fold Induction” value (NCI-H661; [7]) was 17.64 µM. For the same molecule, the “Apoptosis Emax” value (Calu6) was 3.34, the “G1/S cell cycle block” value (Calu6) was 10.5 µM and the “Apoptosis 2 Fold Induction” value (Calu6; [7]) was 3.73 µM. For the same molecule, the “Apoptosis Emax” value (MDA MB 468) was 8.86, the “G1/S cell cycle block” value (MDA MB 468) was 7.81 µM and the “Apoptosis 2 Fold Induction” value (MDA MB 468; [7]) was 3.02 µM. The “Apoptosis Emax” value (MDA MB 231) was 4.35, the “Apoptosis 2 Fold Induction” value (MDA MB 231; [7]) was 18.4 µM and the “Apoptosis Emax” value (ARH-77) was 5.36. For the same molecule, the “G1/S cell cycle block” value (ARH-77) was 7.02 µM, the “Apoptosis 2 Fold Induction” value (ARH-77; [7]) was 30.74 µM and the “Apoptosis Emax” value (DOHH-2) was 6.13. For the same molecule, the “G1/S cell cycle block” value (DOHH-2) was 3.23 µM, the “Apoptosis 2 Fold Induction” value (DOHH-2; [7]) was 3.03 µM and the “Apoptosis Emax” value (U266B1) was 4.88. The “G1/S cell cycle block” value (U266B1) was 3.56 µM, the “Apoptosis 2 Fold Induction” value (U266B1; [7]) was 11.11 µM and the “Apoptosis Emax” value (AGS) was 26.62. The “G1/S cell cycle block” value (AGS) was 3.16 µM, the “Apoptosis 2 Fold Induction” value (AGS; [7]) was 5.04 µM and the “Apoptosis Emax” value (AsPC-1) was 2.07. For the same molecule, the “G1/S cell cycle block” value (AsPC-1) was 3.64 µM, the “Apoptosis Emax” value (RKOE6) was 14.43 and the “G1/S cell cycle block” value (RKOE6) was 4.85 µM. The “Apoptosis 2 Fold Induction” value (RKOE6; [7]) was 4.64 µM, the “Apoptosis Emax” value (PANC-1) was 11.49 and the “G1/S cell cycle block” value (PANC-1) was 7.32 µM. For the same molecule, the “Apoptosis 2 Fold Induction” value (PANC-1; [7]) was 8.83 µM, the “Apoptosis Emax” value (Hs 578T) was 1.19 and the “G1/S cell cycle block” value (Hs 578T) was 4.56 µM. For the same molecule, the “Apoptosis Emax” value (A7) was 55.74, the “G1/S cell cycle block” value (A7) was 2.78 µM and the “Apoptosis 2 Fold Induction” value (A7; [7]) was 2.22 µM. For the same molecule, the “Apoptosis Emax” value (RKO-AS45-1) was 40.99, the “G1/S cell cycle block” value (RKO-AS45-1) was 3.94 µM and the “Apoptosis 2 Fold Induction” value (RKO-AS45-1; [7]) was 3.15 µM. For the same molecule, the “Apoptosis Emax” value (Wi38) was 0.49, the “G1/S cell cycle block” value (Wi38) was 8.82 µM and the “Apoptosis Emax” value (HCT-116) was 20.36. The “G1/S cell cycle block” value (HCT-116) was 1.89 µM, the “Apoptosis 2 Fold Induction” value (HCT-116; [7]) was 2.97 µM and the “Apoptosis Emax” value (T98G) was 21.74. The “G1/S cell cycle block” value (T98G) was 41.3 µM, the “Apoptosis 2 Fold Induction” value (T98G; [7]) was 53.96 µM and the “Apoptosis Emax” value (G-402) was 5.14. The “G1/S cell cycle block” value (G-402) was 3.74 µM, the “Apoptosis 2 Fold Induction” value (G-402; [7]) was 3.11 µM and the “Apoptosis Emax” value (786-O) was 4.67. For the same molecule, the “G1/S cell cycle block” value (786-O) was 4.4 µM, the “Apoptosis 2 Fold Induction” value (786-O; [7]) was 10.31 µM and the “Apoptosis Emax” value (DB) was 16.8. The “G1/S cell cycle block” value (DB) was 7.03 µM, the “Apoptosis 2 Fold Induction” value (DB; [7]) was 4.08 µM and the “Apoptosis Emax” value (RD) was 3.03. For the same molecule, the “G1/S cell cycle block” value (RD) was 7.08 µM, the “Apoptosis 2 Fold Induction” value (RD; [7]) was 11.45 µM and the “Apoptosis Emax” value (C32) was 4.7. The “G1/S cell cycle block” value (C32) was 10.7 µM, the “Apoptosis 2 Fold Induction” value (C32; [7]) was 80.52 µM and the “Apoptosis Emax” value (769-P) was 10.3. For the same molecule, the “G1/S cell cycle block” value (769-P) was 4.82 µM, the “Apoptosis 2 Fold Induction” value (769-P; [7]) was 24.71 µM and the “Apoptosis Emax” value (PC-3) was 12.31. For the same molecule, the “G1/S cell cycle block” value (PC-3) was 8.13 µM, the “Apoptosis 2 Fold Induction” value (PC-3; [7]) was 2.05 µM and the “Apoptosis Emax” value (SKO-007) was 15.45. The “G1/S cell cycle block” value (SKO-007) was 5.2 µM, the “Apoptosis 2 Fold Induction” value (SKO-007; [7]) was 6.42 µM and the “Apoptosis Emax” value (SK-BR-3) was 8.32. For the same molecule, the “G1/S cell cycle block” value (SK-BR-3) was 6.11 µM, the “Apoptosis 2 Fold Induction” value (SK-BR-3; [7]) was 11.6 µM and the “Apoptosis Emax” value (SW1088) was 8.54. The “G1/S cell cycle block” value (SW1088) was 33 µM, the “Apoptosis 2 Fold Induction” value (SW1088; [7]) was 75.51 µM and the “FBS induced migration of A549 cells” value (A549 cells [4]) was “dose-dependent reduction”. The caspase-3 induction (NCI-H1975 cells) was “dose-dependent increase”, the caspase-3 induction (NCH-H460 cells) was “dose-dependent increase” and the caspase-3 induction (A549 cells [5]) was “dose-dependent increase”. For the same molecule, the “tumor growth inhibition (TGI) value” ([6]; day 15, oral 30 mg/kg BID) was 38.3% and the “inhibition of tumor growth” value ([6]; oral 30 mg/kg BID, 15 day period) was “significant inhibition of tumor growth”.
In the case of `CC(=O)O[C@H]1C(=O)[C@@]2(C)[C@H]([C@H](OC(=O)c3ccccc3)[C@]3(O)C[C@H](OC(=O)[C@H](O)[C@@H](NC(=O)c4ccccc4)c4ccccc4)C(C)=C1C3(C)C)[C@]1(OC(C)=O)CO[C@@H]1C[C@@H]2O` [taxol, reference compound], the “tumor growth inhibition (TGI) value” ([6]; day 15, intravenous 10 mg/kg Q3D) is reported as 36.7%.
